The values that follow come from patent US20260027073A1, “USE OF SMALL-MOLECULE COMPOUND HAVING NAPHTHYLAMINE STRUCTURE” (HANGZHOU PHECDAMED CO., LTD., priority 2023, published 2026).

The test system of assay [1] is cisplatin-induced hearing impairment model in mice. Kind of assay: Cisplatin-induced hearing damage. In kind it is in vivo, C57 mice. The protocol:
Select 8-week-old C57 male mice weighing 22-25 g, according to the previous studies and the previous laboratory exploration, mice were induced to have hearing damage by 4 mg/kg of cisplatin, and a certain amount of cisplatin was dissolved in 0.9% saline of the model control group, and then intraperitoneally injected into the mice for four consecutive days, with the volume of the intraperitoneal injection of 5 ml/kg, and then intraperitoneally injected into the mice for four consecutive days with the volume of 0.9% saline for recovery and alleviation, the injection was prescribed at the same time point every day, and no treatment was done on the 9th day to conduct hearing test or dissect the mice for subsequent experiments. […]
The mice were sacrificed by neck dissection, and the cochlea was removed from mice by neck dissection, and processed under the anatomical microscope to expose the round window and the oval window, the cochlear apex was perforate, and the round window, the oval window and the cochlear apex were perfused with 4% PFA solution, and then the whole cochlea was put into 4% PFA solution for fixation, and was shaken overnight at 4° C. […] Finally, photographs were taken using a fluorescence microscope.

The subject of assay [2] is CUMS animal model of depression. Kind of assay: CUMS depression model behavioral tests. It is filed as in vivo, C57BL/6J mice. Particulars: Fluoxetine 30 mg/kg. The source says:
Depression, also known as depressive disorder, is characterized by significant and long-lasting depressed state of mind as the main clinical feature. The CUMS animal model of depression is a chronic unpredictable animal stress model, which simulates part of the stressor, the external material environmental stimulus, and will cause dysfunctions in the animal organism through different stress stimuli, leading to occurrence of the psychiatric disease depression. […] During this period, carefully observing the status of each mouse. • (6) Basket shaking: Placing the mice in an empty basket and shaking the basket drastically, with the criterion that the mice in the basket are unable to stand firm and sway with the shaking of the basket, for 1 hour. • (7) Olfactory stimulation: Placing anise and other spices in the mice's baskets as a means of olfactory stimulation.
The above seven experiments were conducted randomly during a week as a way to achieve unpredictability with 4 weeks of continuous stimulation.
At the end of the modeling, an open field test experiment was conducted to screen the modeled animals and group the successful modeled animals into five groups: normal group (Control), model control group (Model), positive drug treatment group (Fluoxetine), TJ0113 10 mg/kg treatment group (10 mg/kg), […], TJ0113 30 mg/kg treatment group (30 mg/kg). There were 10 mice in each group, and the administration treatment was administered by gavage, the normal and model control groups were given vehicle treatment, the vehicle was 0.5% CMC-Na, the positive drug fluoxetine hydrochloride was solubilized in saline and administered at a dose of 30 mg/kg, and the TJ0113 vehicle was 0.5% CMC-Na, and administered at a dose of 10 mg/kg and 30 mg/kg, respectively. 4 weeks after the end of the administration, behavioral tests were performed.
• (1) Adaptive feeding: Adaptive feeding with 1% sucrose water and plain water for 2 d before the start of the test, at 1 d, interchanging the sugar water and plain water to avoid positional differences for the animals, and fasting food and water for 1 d after adaption; • (2) Formal test: after fasting food and water, 1% sucrose water and plain water were given to the animals (the initial mass of sugar water and plain water is known), and weighing the remaining mass of sugar water/plain water of each animal after 24 h, and calculating the consumption rates of sugar water A and plain water B; • (3) Data analysis: sugar water preference rate=(A/A+B)×100%.
• (1) adapting to the environment: placing the animals in the test environment for 60 min to adapt to the environment before the test; • (2) Formal test: fixing the rear 1/3 of the mouse tail with tape and suspending on the stand of the experimental apparatus, with the head 15 cm from the bottom; • (3) starting timing camera, and stopping after 6 min, and recording the immobility time of the mice within 4 min; • (4) At the end of the test, using 75% alcohol to wipe the bottom and inner wall of the chamber.
• (1) adapting to the environment: placing the animals in the test environment for 60 min to adapt to the environment before the test; • (2) Formal test: placing the animals to be tested in the middle of the open field, and using the ANY-Maze software to collect the data, the test time is 10 min, and the feces and urine must be removed at the end of each round and disinfected and wiped dry with 75% alcohol; • (3) Analysis of results: total moved distance and average speed during the activity, time spent in the center area and time spent in the corner area.

Turning to `O=C(O)C[S+]([O-])c1cc(NS(=O)(=O)c2ccc(Br)cc2)c2ccccc2c1O` (stereo not shown) [I-1], the “hearing thresholds (ABR)” value in assay [1] (4, 8, 16, 24, 32 kHz, 30 mg/kg gavage, 8 days, FIG. 46) is recorded as “significantly decreased”. The “loss of hair cells (Myo7a, cochlear basement membrane)” value in assay [1] (apical, middle, base gyrus, FIG. 47) is on record as “significantly reduced the loss of hair cells”. Further, in assay [2] (TJ0113 10 mg/kg and 30 mg/kg, FIG. 61), the “average movement speed, open field” value is “significantly increased”. The sugar water preference result in assay [2] (TJ0113 30 mg/kg, gavage, FIG. 57) is reported as “significantly increased”. In addition, the “time in despair (immobility), tail-hanging experiment” value in assay [2] (TJ0113 30 mg/kg, FIG. 58) is recorded as “significantly decreased”. Besides, the “distance moved, open field” value in assay [2] (TJ0113 30 mg/kg, FIG. 59) is recorded as “significantly increased”. Further, in assay [2] (TJ0113 30 mg/kg, FIG. 60), the “time in the edge area of the open field” value is “significantly decreased”.
